According to patent US11053251B2, “GPR35 modulators” (Prometheus Biosciences, Inc., priority 2019, dated 2021):

target: Human GPR35 (Homo sapiens, UniProt Q9HC97, S294R); assay: Alternative Beta-Arrestin Assay (JumpIn 294R Tango U2OS cells, LiveBLAzer-FRET B/G); assay type: cell-based; conditions: Human GPR35 expressing JumpIn 294R Tango U2OS cells, 5 hours treatment
How it was run: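 U2OS Tango cells expressing human GPR35 S294R, plated overnight, exposed to serially diluted compounds for 5 hours. β-lactamase reporter read with LiveBLAzer-FRET B/G (CCF4-AM) after 2 h; EC50 from four-parameter fit, zaprinast as positive control.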

Human GPR35, sequence (Q9HC97 whole entry S294R): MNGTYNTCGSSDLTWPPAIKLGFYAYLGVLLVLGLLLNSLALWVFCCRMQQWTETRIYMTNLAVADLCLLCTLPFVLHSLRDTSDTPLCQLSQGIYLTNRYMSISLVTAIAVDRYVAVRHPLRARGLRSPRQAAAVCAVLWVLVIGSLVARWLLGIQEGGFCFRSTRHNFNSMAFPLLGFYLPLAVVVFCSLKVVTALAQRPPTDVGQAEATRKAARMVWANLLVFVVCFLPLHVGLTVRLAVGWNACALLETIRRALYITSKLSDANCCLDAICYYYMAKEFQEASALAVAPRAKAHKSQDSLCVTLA

Row | Compound | EC50 [µM]
1 | CCOc1cc(-c2cccc(C[C@H](OC)C(=O)O)c2)ccc1-c1nc2[nH]nnc2c(=O)[nH]1 [Compound 283, (S)-3-(3′-ethoxy-4′-(7-oxo-6,7-dihydro-3H-[1,2,3]triazolo[4,5-d]pyrimidin-5-yl)-[1,1′-biphenyl]-3-yl)-2-methoxypropanoic acid] | ≤ 10
2 | CCOc1cc(-c2ccc(O)c(OC(C)C(=O)O)c2)ccc1-c1nc2[nH]nnc2c(=O)[nH]1 (stereo not shown) [Compound 280, 2-((3′-ethoxy-4-hydroxy-4′-(7-oxo-6,7-dihydro-3H-[1,2,3]triazolo[4,5-d]pyrimidin-5-yl)-[1,1′-biphenyl]-3-yl)oxy)propanoic acid] | ≤ 10
3 | CCOc1cc(-c2nc(C(=O)O)cs2)ccc1-c1nc2[nH]nnc2c(=O)[nH]1 [Compound 187, 2-(3-ethoxy-4-(7-oxo-6,7-dihydro-3H-[1,2,3]triazolo[4,5-d]pyrimidin-5-yl)phenyl)thiazole-4-carboxylic acid] | ≤ 10
4 | CCOc1cc(-c2cccc(O[C@@H](CC)C(=O)O)c2)ccc1-c1nc2[nH]nnc2c(=O)[nH]1 (single isomer, unassigned) [Compound 254] | ≤ 10
5 | CCOc1cc(-c2cccc(CC(CC)C(=O)O)c2)ccc1-c1nc2[nH]nnc2c(=O)[nH]1 (single isomer, unassigned) [Compound 240, 2-((3′-ethoxy-4′-(7-oxo-6,7-dihydro-3H-[1,2,3]triazolo[4,5-d]pyrimidin-5-yl)-[1,1′-biphenyl]-3-yl)methyl)butanoic acid] | ≤ 10
6 | CCOc1cc(-c2ccc(OCCN3CCCC3)c(CCC(=O)O)c2)ccc1-c1nc2[nH]nnc2c(=O)[nH]1 [Compound 318, 3-(3′-ethoxy-4′-(7-oxo-6,7-dihydro-3H-[1,2,3]triazolo[4,5-d]pyrimidin-5-yl)-4-(2-(pyrrolidin-1-yl)ethoxy)-[1,1′-biphenyl]-3-yl)propanoic acid] | ≤ 10
7 | CCOc1cc(-c2ccc(O)c(NCC(=O)O)c2)ccc1-c1nc2[nH]nnc2c(=O)[nH]1 [Compound 222, (3′-Ethoxy-4-hydroxy-4′-(7-oxo-6,7-dihydro-3H-[1,2,3]triazolo[4,5-d]pyrimidin-5-yl)-[1,1′-biphenyl]-3-yl)glycine] | ≤ 10
8 | CCOc1cc(-c2cccc(N)c2)ccc1-c1nc2[nH]nnc2c(=O)[nH]1 [Compound 197, 5-(3′-Amino-3-ethoxy-[1,1′-biphenyl]-4-yl)-3,6-dihydro-7H-[1,2,3]triazolo[4,5-d]pyrimidin-7-one] | ≤ 10
9 | CCOc1cc(-c2ccc(C(=O)O)c(O)c2)ccc1-c1nc2[nH]nnc2c(=O)[nH]1 [Compound 208, 3′-Ethoxy-3-hydroxy-4′-(7-oxo-6,7-dihydro-3H-[1,2,3]triazolo[4,5-d]pyrimidin-5-yl)-[1,1′-biphenyl]-4-carboxylic acid] | ≤ 10
10 | CCOc1cc(-c2cc(C)cc(O[C@@H](C)C(=O)O)c2)ccc1-c1nc2[nH]nnc2c(=O)[nH]1 [Compound 267, (S)-2-((3′-ethoxy-5-methyl-4′-(7-oxo-6,7-dihydro-3H-[1,2,3]triazolo[4,5-d]pyrimidin-5-yl)-[1,1′-biphenyl]-3-yl)oxy)propanoic acid] | ≤ 10
11 | CC(Oc1cccc(-c2ccc(-c3nc4[nH]nnc4c(=O)[nH]3)c(OC3CCCC3)c2)c1)C(=O)O (stereo not shown) [Compound 250, 2-((3′-(cyclopentyloxy)-4′-(7-oxo-6,7-dihydro-3H-[1,2,3]triazolo[4,5-d]pyrimidin-5-yl)-[1,1′-biphenyl]-3-yl)oxy)propanoic acid] | ≤ 10
12 | CCOc1cc(-c2ccc(OCCN3CCCC3)c(/C=C(\C)C(=O)O)c2)ccc1-c1nc2[nH]nnc2c(=O)[nH]1 [Compound 299, (E)-3-(3′-ethoxy-4′-(7-oxo-6,7-dihydro-3H-[1,2,3]triazolo[4,5-d]pyrimidin-5-yl)-4-(2-(pyrrolidin-1-yl)ethoxy)-[1,1′-biphenyl]-3-yl)-2-methylacrylic acid] | ≤ 10
13 | CCOc1cc(-c2cccc(/C=C/C(=O)O)c2)ccc1-c1nc2[nH]nnc2c(=O)[nH]1 [Compound 235, (E)-3-(3′-ethoxy-4′-(7-oxo-6,7-dihydro-3H-[1,2,3]triazolo[4,5-d]pyrimidin-5-yl)-[1,1′-biphenyl]-3-yl)acrylic acid] | ≤ 10
14 | O=C(O)c1ccc(O)c(-c2ccc(-c3nc4[nH]nnc4c(=O)[nH]3)c(OC3CCCC3)c2)c1 [Compound 210, 3′-(Cyclopentyloxy)-6-hydroxy-4′-(7-oxo-6,7-dihydro-3H-[1,2,3]triazolo[4,5-d]pyrimidin-5-yl)-[1,1′-biphenyl]-3-carboxylic acid] | ≤ 10
15 | CCOc1cc(-c2cccc(OC(CC)C(=O)O)c2)ccc1-c1nc2[nH]nnc2c(=O)[nH]1 (stereo not shown) [Compound 247, 2-((3′-ethoxy-4′-(7-oxo-6,7-dihydro-3H-[1,2,3]triazolo[4,5-d]pyrimidin-5-yl)-[1,1′-biphenyl]-3-yl)oxy)butanoic acid] | ≤ 10
16 | CCOc1cc(-c2ccc(C(=O)O)c(OC)c2)ccc1-c1nc2[nH]nnc2c(=O)[nH]1 [Compound 206, 3′-Ethoxy-3-methoxy-4′-(7-oxo-6,7-dihydro-3H-[1,2,3]triazolo[4,5-d]pyrimidin-5-yl)-[1,1′-biphenyl]-4-carboxylic acid] | ≤ 10
17 | CCOc1cc(-c2ccc(OC(C)C)c(CC(C)C(=O)O)c2)ccc1-c1nc2[nH]nnc2c(=O)[nH]1 (single isomer, unassigned) [Compound 314, 3-(3′-ethoxy-4-isopropoxy-4′-(7-oxo-6,7-dihydro-3H-[1,2,3]triazolo[4,5-d]pyrimidin-5-yl)-[1,1′-biphenyl]-3-yl)-2-methylpropanoic acid] | ≤ 10
18 | CCOc1cc(-c2cc(F)c(F)c(O[C@H](C)C(=O)O)c2)ccc1-c1nc2[nH]nnc2c(=O)[nH]1 (single isomer, unassigned) [Compound 260] | ≤ 10
19 | CCOc1cc(-c2ccc(C(=O)O)c(F)c2)ccc1-c1nc2[nH]nnc2c(=O)[nH]1 [Compound 205, 3′-Ethoxy-3-fluoro-4′-(7-oxo-6,7-dihydro-3H-[1,2,3]triazolo[4,5-d]pyrimidin-5-yl)-[1,1′-biphenyl]-4-carboxylic acid] | ≤ 10
20 | CCOc1cc(-c2cccc(NCC(=O)O)c2)ccc1-c1nc2[nH]nnc2c(=O)[nH]1 [Compound 214, (3′-Ethoxy-4′-(7-oxo-6,7-dihydro-3H-[1,2,3]triazolo[4,5-d]pyrimidin-5-yl)-[1,1′-biphenyl]-3-yl)glycine] | ≤ 10
21 | CCNc1cc(-c2nc3[nH]nnc3c(=O)[nH]2)ccc1-c1ccc(C(=O)O)cc1 [Compound 292, 2′-(ethylamino)-4′-(7-oxo-6,7-dihydro-3H-[1,2,3]triazolo[4,5-d]pyrimidin-5-yl)-[1,1′-biphenyl]-4-carboxylic acid] | ≤ 10
22 | CCOc1cc(-c2ccc(NC(C)=O)c(C(=O)O)c2)ccc1-c1nc2[nH]nnc2c(=O)[nH]1 [Compound 184, 4-acetamido-3′-ethoxy-4′-(7-oxo-6,7-dihydro-3H-[1,2,3]triazolo[4,5-d]pyrimidin-5-yl)-[1,1′-biphenyl]-3-carboxylic acid] | ≤ 10
23 | CCOc1cc(-c2ccc(OC(C)C)c(CC(C)C(=O)O)c2)ccc1-c1nc2[nH]nnc2c(=O)[nH]1 (stereo not shown) [Compound 302, 3-(3′-ethoxy-4-isopropoxy-4′-(7-oxo-6,7-dihydro-3H-[1,2,3]triazolo[4,5-d]pyrimidin-5-yl)-[1,1′-biphenyl]-3-yl)-2-methylpropanoic acid] | ≤ 10
24 | CCOc1cc(-c2cc(C(=O)O)cs2)ccc1-c1nc2[nH]nnc2c(=O)[nH]1 [Compound 190, 5-(3-ethoxy-4-(7-oxo-6,7-dihydro-3H-[1,2,3]triazolo[4,5-d]pyrimidin-5-yl)phenyl)thiophene-3-carboxylic acid] | ≤ 10
25 | CCOc1cc(-c2cccc(C[C@H](NC(C)=O)C(=O)O)c2)ccc1-c1nc2[nH]nnc2c(=O)[nH]1 [Compound 293, (S)-2-acetamido-3-(3′-ethoxy-4′-(7-oxo-6,7-dihydro-3H-[1,2,3]triazolo[4,5-d]pyrimidin-5-yl)-[1,1′-biphenyl]-3-yl)propanoic acid] | ≤ 10
26 | CCOc1cc(-c2cc(OCC(=O)O)cc(C(=O)O)c2)ccc1-c1nc2[nH]nnc2c(=O)[nH]1 [Compound 219, 5-(Carboxymethoxy)-3′-ethoxy-4′-(7-oxo-6,7-dihydro-3H-[1,2,3]triazolo[4,5-d]pyrimidin-5-yl)-[1,1′-biphenyl]-3-carboxylic acid] | ≤ 10
27 | CCOc1cc(-c2cc(O)cc(O[C@@H](C)C(=O)O)c2)ccc1-c1nc2[nH]nnc2c(=O)[nH]1 (single isomer, unassigned) [Compound 256] | ≤ 10
28 | CCOc1cc(-c2nc3[nH]nnc3c(=O)[nH]2)ccc1-c1ccc(C(=O)O)cc1 [Compound 195, 2′-Ethoxy-4′-(7-oxo-6,7-dihydro-3H-[1,2,3]triazolo[4,5-d]pyrimidin-5-yl)-[1,1′-biphenyl]-4-carboxylic acid] | ≤ 10

same assay, conditions: at 5.6 μM; Table 2

Row | Compound | % inhibition at 5.6 μM [% inhibition at]
29 | CCOC(=O)C(C)(C)Cc1cccc(-c2ccc(-c3nc4[nH]nnc4c(=O)[nH]3)c(OCC)c2)c1 [Compound 242, ethyl 3-(3′-ethoxy-4′-(7-oxo-6,7-dihydro-3H-[1,2,3]triazolo[4,5-d]pyrimidin-5-yl)-[1,1′-biphenyl]-3-yl)-2,2-dimethylpropanoate] | 30

same assay, conditions: at 50 μM; Table 2

Row | Compound | % inhibition at 50 μM [% inhibition at]
30 | CCOc1cc(-c2ccc(OCc3ccc(OC)cc3)c(NCC(=O)OC(C)(C)C)c2)ccc1-c1nc2[nH]nnc2c(=O)[nH]1 [Compound 221, tert-butyl (3′-ethoxy-4-((4-methoxybenzyl)oxy)-4′-(7-oxo-6,7-dihydro-3H-[1,2,3]triazolo[4,5-d]pyrimidin-5-yl)-[1,1′-biphenyl]-3-yl)glycinate] | 57
31 | CN(C)CCOc1cc(-c2ccc(C(=O)O)cc2)ccc1-c1nc2[nH]nnc2c(=O)[nH]1 [Compound 228, 3′-(2-(Dimethylamino)ethoxy)-4′-(7-oxo-6,7-dihydro-3H-[1,2,3]triazolo[4,5-d]pyrimidin-5-yl)-[1,1′-biphenyl]-4-carboxylic acid] | 16
